Data set [1] deals with green peach aphid (Myzus persicae). Put plainly: Myzus test (MYZUPE spray treatment). It is filed as in vivo. The settings on record: Myzus persicae, 144 h; for pest or weed control at 500 g/ha: application rate 500 g/ha; for pest or weed control at 500 g/ha / pest or weed control at 100 g/ha: after 6 days, read-out: activity in % (aphids killed); for pest or weed control at 100 g/ha: application rate 100 g/ha.

A short description of data set [2]: log P by HPLC on reversed-phase columns (EEC Directive 79/831 Annex V.A8). The note with it: reversed-phase C18 HPLC column, pH 2.7, HPLC reversed-phase C18, acidic range pH 2.7 (HCOOH); only or first value of the cell; read-out: log P. The format is physicochemical.
In data set [3] the test system is caterpillars of the armyworm (Spodoptera frugiperda). Put plainly: Spodoptera frugiperda test (SPODFR spray treatment). It is filed as in vivo. The note with it: Spodoptera frugiperda, 168 h; for pest or weed control at 500 g/ha: application rate 500 g/ha; for pest or weed control at 500 g/ha / pest or weed control at 100 g/ha: after 7 days, read-out: activity in % (caterpillars killed); for pest or weed control at 100 g/ha: application rate 100 g/ha.

The subject of the next data set is adult Musca domestica. Put plainly: Musca domestica test (MUSCDO). The settings on record: 1152 h, after 48 days, read-out: activity (kill in %). It is filed as in vivo. As to the method: (§1) Solvent: dimethyl sulphoxide
Vessels containing a sponge treated with the active compound preparation of the desired concentration are populated with adult Musca domestica.
(§2) After 48 days, the kill in % is determined.

For data set [4], the system named is larvae of the mustard beetle (Phaedon cochleariae). Put plainly: Phaedon test (PHAECO spray treatment). The settings on record: Phaedon cochleariae, 168 h, read-out: activity in % (beetle larvae killed).
In another data set the test system is Lucilia cuprina larvae. Put plainly: Lucilia cuprina test (LUCICU). It is filed as in vivo. The note with it: 1152 h, 100 ppm, after 48 days, read-out: activity (kill in %). As to the method:
as §1
Vessels containing horse meat treated with the active ingredient preparation of the desired concentration are populated with about 20 Lucilia cuprina larvae.
as §2

In the next data set the test system is Boophilus microplus. Put plainly: Boophilus microplus test (BOOPMI injection). The format is in vivo. The settings on record: Rhipicephalus microplus, 168 h; 20 μg/animal, injection into the abdomen, after 7 days; read-out: activity in % (no fertile eggs laid). As to the method:
as §1
The active compound solution is injected into the abdomen (Boophilus microplus), and the animals are transferred into dishes and stored in a climate-controlled room.
The activity is assessed by […] of fertile eggs. 100% means that none of the ticks has laid any fertile eggs.

For seven compounds, pest or weed control, chromatographic logP and inhibition results are on record in US8791143B2, “Anthranilic diamide derivatives having cyclic side-chains” (priority 2010, dated 2014).

One may read the inhibition as the drop in the measured response relative to a control, in per cent. Lower therefore signals a weak effect.

As to `Cc1cc(C#N)cc(C(=O)NC2CCS(=O)(=O)C2)c1NC(=O)c1cc(Cn2nnc(C(F)(F)C(F)(F)F)n2)nn1-c1ncccc1Cl` (stereo not drawn) [Example 38], the pest or weed control at 500 g/ha in data set [1], in data set [3] and in data set [4] was 100% each time. In addition, in data set [2], the chromatographic logP turned out to be 2.82. Moreover, the pest or weed control at 100 ppm with adult Musca domestica and with Lucilia cuprina larvae was 100% in each case. Moreover, in the data set with Boophilus microplus, the pest or weed control at 0.02 mg was 100%.
Regarding `Cc1cc(C#N)cc(C(=O)NC2COC2)c1NC(=O)c1cc(Cn2nnc(C(F)(F)F)n2)nn1-c1ccccc1Cl` [Example 26], the pest or weed control at 100 g/ha in data set [1], in data set [3] and in data set [4] was 100% each time. Further, the chromatographic logP in data set [2] is 2.85. Further, the results for the pest or weed control at 100 ppm in the data set with adult Musca domestica and in the data set with Lucilia cuprina larvae were 80% and 100%, respectively. The pest or weed control at 0.02 mg with Boophilus microplus was 100%.
As for `Cc1cc(C#N)cc(C(=O)NC2(c3cccc(C(F)(F)F)c3)CC2)c1NC(=O)c1cc(Cn2nnc(C(F)(F)F)n2)nn1-c1ncccc1Cl` [Example 65], the pest or weed control at 100 g/ha was determined as 90% in data set [1], 100% in data set [3] and 100% in data set [4]. In data set [2], the chromatographic logP is 3.97. Moreover, the pest or weed control at 20 ppm in the data set on adult Musca domestica was 80%. Besides, the pest or weed control at 100 ppm in the data set on Lucilia cuprina larvae is 100%. Moreover, the pest or weed control at 0.02 mg with Boophilus microplus worked out at 100%.
As to `Cc1cc(C#N)cc(C(=O)NC2CCS(=O)(=O)C2)c1NC(=O)c1cc(Cn2nnc(C(F)(F)F)n2)nn1-c1ccccc1Cl` (stereo not drawn) [Example 36], the inhibition at 100 g/ha in data set [1] (100 g/ha, 6 d, comparison with prior art) came out at 100%; in data set [3] (100 g/ha, 7 d, comparison with prior art), 100%. For the same compound, the pest or weed control at 100 g/ha in data set [1], in data set [3] and in data set [4] was 100% each time. For the same compound, in data set [2], the chromatographic logP is 2.82. The results for the pest or weed control at 100 ppm in the data set on adult Musca domestica and with Lucilia cuprina larvae were 80% and 100%, respectively. In the data set on Boophilus microplus, the pest or weed control at 0.02 mg was 100%.
Take `Cc1cc(C#N)cc(C(=O)N[C@@H]2CCOC2=O)c1NC(=O)c1cc(Cn2nnc(C(F)(F)C(F)(F)F)n2)nn1-c1ncccc1Cl` [Example 44]: the pest or weed control at 100 g/ha in data set [1] was 90%; in data set [3], 100%; in data set [4] it was 100%. Further, the chromatographic logP in data set [2] was 2.9. The pest or weed control at 100 ppm with adult Musca domestica and in the data set with Lucilia cuprina larvae was 100% in each case. In addition, the pest or weed control at 0.02 mg in the data set on Boophilus microplus came out at 100%.
`Cc1cc(C#N)cc(C(=O)NC2COC2)c1NC(=O)c1cc(Cn2nnc(C(F)(F)F)n2)nn1-c1c(F)cccc1F` [Example 27]: the pest or weed control at 100 g/ha was found to be 80% in data set [1], 100% in data set [3] and 100% in data set [4]. For the same compound, the chromatographic logP in data set [2] was 2.79. For the same compound, in the data set with adult Musca domestica, the pest or weed control at 20 ppm was found to be 100%. Also, the pest or weed control at 100 ppm in the data set on Lucilia cuprina larvae is 100%. In addition, in the data set on Boophilus microplus, the pest or weed control at 0.02 mg was 100%.
`Cc1cc(C#N)cc(C(=O)NC2CCN(Cc3ccccc3)C2)c1NC(=O)c1cc(Cn2nnc(C(F)(F)F)n2)nn1-c1ncccc1Cl` (stereo not drawn) [Example 30]: the pest or weed control at 500 g/ha in data set [1], in data set [3] and in data set [4] was 100% throughout. In data set [2], the chromatographic logP stood at 1.9. Further, in the data set on adult Musca domestica, the pest or weed control at 20 ppm was determined as 80%. The pest or weed control at 100 ppm in the data set on Lucilia cuprina larvae was 100%. Besides, the pest or weed control at 0.02 mg with Boophilus microplus was determined as 100%.
